Calls of active or inactive are those of the source. The calls are words filed in the database; no cut-off is given here.
Assays:
[1] = system: A549; assay: Anti-proliferative activity against human A549 cells incubated for 72 hrs by MTT assay; type: functional, cell-based; conditions: A549, 72 h
[2] = system: SW-620; assay: Anti-proliferative activity against human SW620 cells incubated for 72 hrs by MTT assay; type: functional, cell-based; conditions: SW-620, 72 h
[3] = system: HCT-116; assay: Inhibition of colony formation in human HCT-116 cells incubated for 7 to 12 days by crystal violet staining based analysis; type: functional, cell-based; conditions: dose <= 3.0 µM, time 7-12 day
[4] = Selectivity index, ratio of IC50 for human L02 cells to IC50 for human A549 cells; type: toxicity; conditions: L02 cells versus A549 cells, read-out: Ratio IC50
[5] = Selectivity index, ratio of IC50 for human L02 cells to IC50 for human Bel-7402 cells; type: toxicity; conditions: L02 cells versus Bel-7402 cells, read-out: Ratio IC50
[6] = Selectivity index, ratio of IC50 for human L02 cells to IC50 for human HCT-116 cells; type: toxicity; conditions: L02 cells versus HCT-116 cells, read-out: Ratio IC50
[7] = Selectivity index, ratio of IC50 for human L02 cells to IC50 for human SW620 cells; type: toxicity; conditions: L02 cells versus SW620 cells, read-out: Ratio IC50
[8] = Anti-proliferative activity against human L02 cells incubated for 72 hrs by MTT assay; type: toxicity, cell-based
[9] = system: HCT-116; assay: Inhibition of cell proliferation in human HCT-116 cells incubated for 12 hrs by EdU assay; type: functional, cell-based; conditions: dose <= 3.0 µM
[10] = system: HCT-116; assay: Inhibition of colony formation in human HCT-116 cells at 3 uM incubated for 7 to 12 days by crystal violet staining based analysis relative to control; type: functional; conditions: time 7-12 day
[11] = system: HCT-116; assay: Anti-proliferative activity against human HCT-116 cells assessed as inhibition of STAT3 phosphorylation upto 3 uM incubated for 72 hrs by Western blot analysis; type: functional, cell-based
[12] = system: HCT-116; assay: Induction of ferroptosis in human HCT-116 cells incubated for 72 hrs in presence of DFO by MTT assay; type: functional, cell-based
[13] = system: HCT-116; assay: Induction of ferroptosis in human HCT-116 cells incubated for 72 hrs in presence of Fer-1 by MTT assay; type: functional, cell-based
[14] = system: HCT-116; assay: Depletion of GSH in human HCT-116 cells assessed as reduction in GSH/GSSG ratio upto 3 uM incubated for 24 hrs; type: functional, cell-based
[15] = system: HCT-116; assay: Induction of apoptosis in human HCT-116 cells assessed as viable cells at 0.03 uM incubated for 72 hrs by Annexin V-FITC/PI staining based flow cytometry (reference value: 97.1 %); type: functional; conditions: read-out: Activity
[16] = system: HCT-116; assay: Induction of apoptosis in human HCT-116 cells assessed as necrotic cells at 0.03 uM incubated for 72 hrs by Annexin V-FITC/PI staining based flow cytometry (reference value: 0.33 %); type: functional
[17] = system: HCT-116; assay: Induction of apoptosis in human HCT-116 cells assessed as viable cells at 0.3 uM incubated for 72 hrs by Annexin V-FITC/PI staining based flow cytometry (reference value: 97.1 %); type: functional; conditions: read-out: Activity
[18] = system: HCT-116; assay: Induction of apoptosis in human HCT-116 cells assessed as necrotic cells at 0.3 uM incubated for 72 hrs by Annexin V-FITC/PI staining based flow cytometry (reference value: 0.33 %); type: functional
[19] = system: HCT-116; assay: Induction of apoptosis in human HCT-116 cells assessed as viable cells at 3 uM incubated for 72 hrs by Annexin V-FITC/PI staining based flow cytometry (reference value: 97.1 %); type: functional; conditions: read-out: Activity
[20] = system: HCT-116; assay: Induction of apoptosis in human HCT-116 cells assessed as early apoptotic cells at 3 uM incubated for 72 hrs by Annexin V-FITC/PI staining based flow cytometry (reference value: 1.55 %); type: functional
[21] = system: HCT-116; assay: Induction of apoptosis in human HCT-116 cells assessed as late apoptotic cells at 3 uM incubated for 72 hrs by Annexin V-FITC/PI staining based flow cytometry (reference value: 0.98 %); type: functional
[22] = system: HCT-116; assay: Induction of apoptosis in human HCT-116 cells in presence of Z-VAD-FMK; type: functional, cell-based
[23] = system: HCT-116; assay: Induction of apoptosis in human HCT-116 cells assessed as increase in cleaved caspase-3 level upto 3 uM incubated for 72 hrs by Western blot analysis; type: functional, cell-based
[24] = system: HCT-116; assay: Induction of apoptosis in human HCT-116 cells assessed as decrease in Bcl-2 level upto 3 uM incubated for 72 hrs by Western blot analysis; type: functional, cell-based
[25] = system: HCT-116; assay: Induction of cell cycle arrest in human HCT-116 cells assessed as accumulation at G2/M phase at 0.03 uM incubated for 72 hrs by PI staining based flow cytometry (reference value: 15.79 %); type: functional
[26] = system: HCT-116; assay: Induction of cell cycle arrest in human HCT-116 cells assessed as accumulation at G2/M phase at 3 uM incubated for 72 hrs by PI staining based flow cytometry (reference value: 15.79 %); type: functional
[27] = system: HCT-116; assay: Induction of cell cycle arrest in human HCT-116 cells at G2/M phase assessed as increase in p53 level incubated for 72 hrs by Western blot analysis; type: functional, cell-based; conditions: dose <= 3.0 µM
[28] = Toxicity in BALB/c mouse assessed as loss of appetite at 100 mg/kg, ip administered continuously for 7 days; type: organism-based; conditions: in vivo, 168 h, time 7 day
[29] = Toxicity in BALB/c mouse assessed as apparent damage in spleen at 100 mg/kg, ip administered continuously for 7 days by H and E staining based analysis; type: organism-based; conditions: in vivo, 168 h, time 7 day
[30] = system: HCT-116; assay: Antitumor activity against human HCT-116 cells xenografted in mouse at 50 mg/kg, ip administered once in every 2 days for 21 days relative to control; type: functional; conditions: HCT-116, 504 h, time 21 day, read-out: TGI
[31] = Toxicity in mouse xenografted with human HCT-116 cells assessed as body weight change at 50 mg/kg, ip administered once in every 2 days for 21 days; type: organism-based; conditions: in vivo, 504 h, time 21 day

C[C@@H]1CC[C@H]2[C@@H](C)C(OC(=O)Nc3ccc(Cl)cc3)O[C@@H]3O[C@@]4(C)CC[C@H]1[C@]32OO4 (stereo partly specified)
IC50 [1]: 1000 nM | IC50 [2]: 600 nM | inhibition [3]: Dose-dependent-effect | selectivity ratio [4]: 16.8 | selectivity ratio [5]: 2 | selectivity ratio [6]: 54.1 | selectivity ratio [7]: 28 | IC50 at 72 h [8]: 16800 nM | inhibition [9]: Dose-dependent-effect | inhibition at 3 µM [10]: 62.1% | inhibition [11]: Active | Activity [12]: inactive | Activity [13]: inactive | Activity [14]: Active | viability at 0.03 µM [15]: 93.3% | Activity [16]: 0.22% | viability at 0.3 µM [17]: 81.9% | Activity [18]: 0.071% | viability at 3 µM [19]: 56.7% | Activity [20]: 17% | Activity [21]: 26.2% | Activity [22]: inactive | Activity [23]: Active | Activity [24]: Active | Activity [25]: 25.25% | Activity [26]: 33.23% | Activity [27]: Dose-dependent-effect | Activity [28]: Non-toxic | Activity [29]: Non-toxic | inhibition in vivo at 50 mg/kg [30]: ≤ 58.7% | Activity [31]: Non-toxic
